# How the values were obtained:
# [1] = Antiangiogenic activity in human PC3 cells assessed as reduction in TNF-alpha levels at […] +/- […] uM after 72 hrs by ELISA relative to control; assay type: functional, PC-3; parameters: scale not given: the % may be the effect or the level left
# [2] = Antiangiogenic activity in human PC3 cells assessed as reduction in TGF-beta levels at […] +/- […] uM after 72 hrs by ELISA relative to control; assay type: functional, PC-3; parameters: scale not given: the % may be the effect or the level left
# [3] = Antiangiogenic activity in human PC3 cells assessed as reduction in VEGF levels at […] +/- […] uM after 72 hrs by ELISA relative to control; assay type: functional, PC-3; parameters: scale not given: the % may be the effect or the level left
# [4] = Antiangiogenic activity in human PC3 cells assessed as reduction in IGF-1 levels at […] +/- […] uM after 72 hrs by ELISA relative to control; assay type: functional, PC-3; parameters: scale not given: the % may be the effect or the level left
# HUVEC = assay: Antiproliferative activity against HUVEC after 72 hrs by AlamarBlue assay; conditions: Homo sapiens
# [5] = Antiangiogenic activity in human PC3 cells assessed as reduction in FGF-beta levels at […] +/- […] uM after 72 hrs by ELISA relative to control; assay type: functional, PC-3; parameters: scale not given: the % may be the effect or the level left
# [6] = Solubility of the compound; assay type: physicochemical
# [7] = Growth inhibition of human OVCAR5 cells after 48 hrs by SRB assay; assay type: functional; conditions: OVCAR-5, 48 h
# ACHN = assay: Growth inhibition of human ACHN cells after 48 hrs by SRB assay; assay type: functional
# [8] = Growth inhibition of human SNB19 cells after 48 hrs by SRB assay; assay type: functional; conditions: SNB-19, 48 h
# SK-MEL-28 = assay: Growth inhibition of human SK-MEL-28 cells after 48 hrs by SRB assay; assay type: functional; conditions: SK-MEL-28, 48 h, read-out: LC50 (the source's name)
# [9] = Growth inhibition of human IGROV1 cells after 48 hrs by SRB assay; assay type: functional; conditions: IGROV-1, 48 h
# SN12C = assay: Growth inhibition of human SN12C cells after 48 hrs by SRB assay; assay type: functional
# Malme-3M = assay: Growth inhibition of human MALME-3M cells after 48 hrs by SRB assay; assay type: functional
# [10] = Growth inhibition of human SF539 cells after 48 hrs by SRB assay; assay type: functional; conditions: SF-539, 48 h
# MDA-MB-231 = assay: Growth inhibition of human MDA-MB-231 cells after 48 hrs by SRB assay; assay type: functional; conditions: MDA-MB-231, 48 h
# NCI-H322M = assay: Growth inhibition of human NCI-H322M cells after 48 hrs by SRB assay; assay type: functional
# [11] = Growth inhibition of human UACC62 cells after 48 hrs by SRB assay; assay type: functional; conditions: UACC-62, 48 h
# [12] = Growth inhibition of human UO31 cells after 48 hrs by SRB assay; assay type: functional; conditions: UO-31, 48 h
# [13] = read-out: LC50 (the source's name)
smiles,measurement,setting,value
NS(=O)(=O)c1ccc(Nc2nccc(Nc3ccc4[nH]ncc4c3)n2)cc1,Activity,[1],36%
same,Activity,[2],32.2%
same,Activity,[3],37.6%
same,Activity,[4],39.5%
same,IC50,HUVEC,1.37 µM
same,Activity,[5],28.4%
same,solubility,[6],Insoluble
COc1ccc(Nc2nccc(Nc3ccc4[nH]ncc4c3)n2)cc1,GI50,[7],3.33 µM
same,TGI,[7],> 100 µM
same,CC50,[7]; [13],> 100 µM
same,GI50,ACHN,2.89 µM
same,TGI,ACHN,11.7 µM
same,CC50,ACHN; [13],45 µM
same,GI50,[8],4.3 µM
same,TGI,[8],87 µM
same,CC50,[8]; [13],> 100 µM
same,CC50,SK-MEL-28,> 100 µM
same,GI50,[9],3.36 µM
same,TGI,[9],25.1 µM
same,CC50,[9]; [13],> 100 µM
same,GI50,SN12C,3.92 µM
same,TGI,SN12C,> 100 µM
same,CC50,SN12C; [13],> 100 µM
same,GI50,Malme-3M,3.27 µM
same,TGI,Malme-3M,15.9 µM
same,CC50,Malme-3M; [13],> 100 µM
same,GI50,[10],4.38 µM
same,TGI,[10],16.8 µM
same,CC50,[10]; [13],51.3 µM
same,GI50,MDA-MB-231,2.69 µM
same,TGI,MDA-MB-231,5.36 µM
same,CC50,MDA-MB-231; [13],> 100 µM
same,GI50,NCI-H322M,4.48 µM
same,TGI,NCI-H322M,38.2 µM
same,CC50,NCI-H322M; [13],> 100 µM
same,GI50,[11],1.93 µM
same,TGI,[11],16.9 µM
same,CC50,[11]; [13],> 100 µM
same,GI50,[12],2.12 µM
same,TGI,[12],11.4 µM
same,CC50,[12]; [13],33.8 µM
